Assay type in all cases: biochemical, Brevibacterium sterolicum ATCC 21387
The target in assay [1] is T1, cholesterol oxidase I (Brevibacterium sterolicum, UniProt P22637).
T1 construct: host or cells: Brevibacterium sterolicum ATCC 21387 (origin of the enzyme; how it was prepared is not described)
Briefly: Influence of inhibitor on enzyme activity. The note with it: inhibitor at 1 mM, activity in the absence of the inhibitor = 100. From the text: (§1) (3) Working pH for activity: The working pH of cholesterol oxidase II is in a range of 5.0 to 7.5, whereas that of cholesterol oxidase I is in a range of 6.0 to 7.5. […]
(§2) (d) Based on the amount of hydrogen peroxide formed, the amount of oxygen consumed and identification of the reaction product as described in (a), (b) and (c), it is recognized that the enzyme of the present invention acts on specifically cholesterol, that cholesterol was oxidized into hydrogen peroxide and 4-cholesten-3-one; that is, this enzyme has a cholesterol oxidase activity. [drawing 2] wherein R represents [drawing 3] • II. Working pH range and stable pH range The working pH for the activity is in a range of 5.0 to 7.5. The working pH range was determined by assaying the activity at each pH (phosphate buffer, Tris-HCl buffer, sodium acetate buffer) after the reaction at 37°C for 5 minutes. […] The pH range is determined by treating the enzyme at 50°C for 60 minutes at each pH (phosphate buffer, Tris-HCl buffer, sodium acetate buffer) and then assaying the residual activity. Method for determination of titer The amount of enzyme which catalyzes the reaction of decomposing 1 µmole of cholesterol at 37°C for one minute in the presence of oxygen is defined as one unit. The titer is determined as follows. With shaking, the enzyme acts on cholesterol and 4-aminoantipyrine and phenol are reacted with the formed hydrogen peroxide in the presence of peroxidase to form quinoneimine pigment. Absorption of the thus formed quinoneimine pigment in the visible region is measured to determine the amount of hydrogen peroxide generated. Thus, the titer of the enzyme is determined. Hereafter specific activity is defined as activity per 1 mg of protein (unit/mg). Furthermore, an amount of enzyme protein is determined by absorbance at 280 nm (1 mg/mℓ when absorbance is 1). • (a) Principle The enzyme activity is determined by reacting hydrogen peroxide generated by the enzyme with 4-aminoantipyrine and phenol in the presence of peroxidase and quantitatively determining the formed quinoneimine pigment. The reaction is shown by the following equations (1) and (2). [drawing 4] wherein R represents [drawing 5] [drawing 6] • (b) Procedure In a test tube, there are charged 1.0 ml of 3 mM cholesterol solution (which is prepared by adding 6 mℓ of 50 mM cholesterol ethanol solution to 94 mℓ of 1.05% Triton X-100 solution with stirring, heating the mixture for 10 minutes on a water bath, cooling the mixture in water, adding distilled water to the mixture until the total volume is 100 mℓ; and is not allowed to be used 30 minutes or longer after preparation), 0.3 mℓ of 50 mM sodium bilate solution, 0.3 mℓ of 0.5 mM potassium-sodium phosphate buffer (pH 6.6), 0.5 mℓ of 42 mM phenol, 0.5 mℓ of 2.4 mM 4-aminoantipyrine and 0.2 mℓ of 115 units/mℓ horseradish-derived peroxidase. The mixture is agitated. After maintaining at 37°C for 3 mintues, 0.2 mℓ of an enzyme solution is added to the mixture. With shaking, the reaction is carried out at 37°C for 5 to 10 minutes. Then, absorbance is measured at 500 nm (OD 500 nm). • (c) Calculation of titer One unit of cholesterol oxidase II corresponds to an enzyme activity which decomposes 1 µmole of cholesterol at 37°C for 1 minute. On the other hand, it is reported that absorption coefficient of 1 mM quinoneimine is 5.33 [Clinical Chemistry, 20, 470 (1974)]. […]

Assay [2] has as its system cholesterol oxidase II. Put plainly: Influence of inhibitor on enzyme activity. Particulars: for Relative Activity (%): cholesterol oxidase II, inhibitor at 1 mM, activity in the absence of the inhibitor = 100; for Inhibition: whether cholesterol oxidase II is inhibited, in words.
Text: as §1, §2

Assay [3] has as its target T1, cholesterol oxidase I. Briefly: Substrate specificity (relative activity on each substrate). Particulars: activity of cholesterol oxidase I on each substrate; cholesterol = 100. The method, then: (§3) The working pH range was determined by assaying the activity at each pH (phosphate buffer, Tris-HCl buffer, sodium acetate buffer) after the reaction at 37°C for 5 minutes. […] The pH range is determined by treating the enzyme at 50°C for 60 minutes at each pH (phosphate buffer, Tris-HCl buffer, sodium acetate buffer) and then assaying the residual activity. Method for determination of titer The amount of enzyme which catalyzes the reaction of decomposing 1 µmole of cholesterol at 37°C for one minute in the presence of oxygen is defined as one unit. The titer is determined as follows. With shaking, the enzyme acts on cholesterol and 4-aminoantipyrine and phenol are reacted with the formed hydrogen peroxide in the presence of peroxidase to form quinoneimine pigment. Absorption of the thus formed quinoneimine pigment in the visible region is measured to determine the amount of hydrogen peroxide generated. Thus, the titer of the enzyme is determined. Hereafter specific activity is defined as activity per 1 mg of protein (unit/mg). […] The mixture is agitated. After maintaining at 37°C for 3 mintues, 0.2 mℓ of an enzyme solution is added to the mixture. With shaking, the reaction is carried out at 37°C for 5 to 10 minutes. Then, absorbance is measured at 500 nm (OD 500 nm). • (c) Calculation of titer One unit of cholesterol oxidase II corresponds to an enzyme activity which decomposes 1 µmole of cholesterol at 37°C for 1 minute. […] Optimum temperature The optimum temperature at a pH of 6.6 for 3 minutes of the reaction time was examined. […] After heat treatment at pH of 7.0 for 60 minutes in 0.05 M phosphate buffer, the residual activity was determined. […] Reaction rates of the two enzymes were measured in various concentrations of cholesterol. […] Michealis' constant was determined from the Line weaver-Burk plot [refer to J. Am. […] Determination of the amino acid sequence and nucleotide sequence of cholesterol oxidase II Cholesterol oxidase II may be divided into 2 subunits, using reverse phase high performance liquid chromatography. Each subunit is digested with a protease, for example trypsin, and the digested subunit is further fractionated using high performance liquid chromatography, to obtain protease-digested fragments. The amino acid sequence of each digested fragment may be analyzed according to the conventional method, with the amino acid sequencer.

Assay [4] relates to cholesterol oxidase II. Described as above. Particulars: for Relative Activity (%): activity of cholesterol oxidase II on each substrate, cholesterol = 100; for Substrate specificity: whether cholesterol oxidase II acts on the substrate, in words. The method, then:
as §3

T1 sequence (P22637 46-552): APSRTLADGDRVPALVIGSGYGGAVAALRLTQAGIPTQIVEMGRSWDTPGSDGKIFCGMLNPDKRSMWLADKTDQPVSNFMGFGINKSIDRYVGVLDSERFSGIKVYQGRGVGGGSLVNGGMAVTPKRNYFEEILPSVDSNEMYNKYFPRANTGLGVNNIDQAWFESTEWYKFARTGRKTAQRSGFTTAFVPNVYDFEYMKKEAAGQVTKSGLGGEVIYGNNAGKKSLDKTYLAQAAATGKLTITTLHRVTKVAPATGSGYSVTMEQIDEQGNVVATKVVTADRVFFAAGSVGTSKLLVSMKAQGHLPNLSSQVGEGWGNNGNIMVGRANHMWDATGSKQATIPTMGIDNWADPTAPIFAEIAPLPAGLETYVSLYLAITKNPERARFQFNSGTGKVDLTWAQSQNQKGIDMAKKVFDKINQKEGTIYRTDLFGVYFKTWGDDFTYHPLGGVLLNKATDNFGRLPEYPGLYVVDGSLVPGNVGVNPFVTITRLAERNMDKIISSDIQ

Consider `O=[N+]([O-])[O-].[Ag+]` [AgNO3, silver nitrate], for which the “Relative Activity (%)” value in assay [1] came out at 0%. Further, in assay [2], the “Relative Activity (%)” value is 1.0% and the Inhibition entry was “inhibited”.

Take `C[C@]12CC[C@@H](O)C[C@@H]1CC[C@@H]1[C@@H]2CC[C@]2(C)C(=O)CC[C@@H]12` [Androsterone]: the “Relative Activity (%)” value in assay [3] came out at 0%. Moreover, in assay [4], the “Relative Activity (%)” value was 0% and the Substrate specificity entry is reported as “does not act on”.

As for `CCCCC/C=C\C/C=C\CCCCCCCC(=O)O[C@H]1CC[C@@]2(C)C(=CC[C@H]3[C@@H]4CC[C@H]([C@H](C)CCCC(C)C)[C@@]4(C)CC[C@@H]32)C1` [Cholesterol linoleate], the “Relative Activity (%)” value in assay [3] and in assay [4] was 0% in each case. In assay [4], the Substrate specificity result is on record as “does not act on”.

For `CC(C)CCC[C@@H](C)[C@H]1CC[C@H]2[C@@H]3CC=C4C[C@@H](O)CC[C@]4(C)[C@H]3CC[C@]12C` [Cholesterol, 5-cholesten-3-β-ol], the “Relative Activity (%)” value in assay [3] and in assay [4] was 100% throughout. Further, the Substrate specificity result in assay [4] is “acts on”.

On to `C[C@]12CC[C@H](O)CC1=CC[C@@H]1[C@@H]2CC[C@]2(C)C(=O)CC[C@@H]12` [Dehydroisoandrosterone], for which the “Relative Activity (%)” value in assay [3] turned out to be 41.4%. Further, in assay [4], the “Relative Activity (%)” value is 13.0% and the Substrate specificity result is “acts on”.

For the compound `C[C@]12CC[C@@H]3c4ccc(O)cc4CC[C@H]3[C@@H]1CC[C@@H]2O` [Estradiol], the “Relative Activity (%)” value in assay [3] is reported as 0%.

As for `CC(C)=CCC[C@@H](C)[C@H]1CC[C@@]2(C)C3=C(CC[C@]12C)[C@@]1(C)CC[C@H](O)C(C)(C)[C@@H]1CC3` [Lanosterol], the “Relative Activity (%)” value in assay [3] was 0%. In assay [4], the “Relative Activity (%)” value was 0% and the Substrate specificity entry was “does not act on”.

With `CC(=O)[C@H]1CC[C@H]2[C@@H]3CC=C4C[C@@H](O)CC[C@]4(C)[C@H]3CC[C@]12C` [Pregnenolone], the “Relative Activity (%)” value in assay [3] is reported as 22.4%. Also, in assay [4], the “Relative Activity (%)” value was found to be 32.9% and the Substrate specificity result was “acts on”.

As to `CC[C@H](/C=C/[C@@H](C)[C@H]1CC[C@H]2[C@@H]3CC=C4C[C@@H](O)CC[C@]4(C)[C@H]3CC[C@]12C)C(C)C` [Stigmasterol], in assay [3], the “Relative Activity (%)” value is on record as 10.0%. Besides, in assay [4], the “Relative Activity (%)” value is 64.4% and the Substrate specificity result was “acts on”.

On to `C=C1CC[C@H](O)C/C1=C/C=C1\CCC[C@]2(C)[C@@H]([C@H](C)CCCC(C)C)CC[C@@H]12` [Vitamin D3], for which the “Relative Activity (%)” value in assay [3] is listed as 0%. In assay [4], the “Relative Activity (%)” value worked out at 0% and the Substrate specificity result is “does not act on”.

Consider `Oc1cccc2cccnc12` [o-Hydroxyquinoline], for which, in assay [2], the “Relative Activity (%)” value was 91.3% and the Inhibition result is given as “inhibited”.

Turning to `O=S(=O)(O)c1cc[c]([Hg][Cl])cc1` [p-Chloromercury benzenesulfonate], in assay [2], the “Relative Activity (%)” value is reported as 87.0% and the Inhibition result is on record as “inhibited”.

`CC[C@H](CC[C@@H](C)[C@H]1CC[C@H]2[C@@H]3CC=C4C[C@@H](O)CC[C@]4(C)[C@H]3CC[C@]12C)C(C)C` [β-Sitosterol]: the “Relative Activity (%)” value in assay [3] came to 19.7%. For the same compound, in assay [4], the “Relative Activity (%)” value came to 82.0% and the Substrate specificity result is on record as “acts on”.

The values are drawn from patent EP0560983B1, “New DNA sequence” (priority 1991, dated 1993).
